For data set [1] the following is noted: for Plasma concentrations: individual opioid withdrawal patients, IV infusion.
The conditions of data set [2]: schizophrenia study, one subject. The method, then:
Adverse events (AEs), including serious adverse events (SAEs), were assessed, recorded, and reported in accordance with FDA guidance. Should any SAE occur, the study would be stopped until a cause for the SAE was determined.

Data set [3] can be described thus: clinical. The settings on record: human, plasma, iv, Plasma concentrations, individual opioid withdrawal patients, IV infusion.
The nature of data set [4]: clinical. The settings on record: human, in vivo. The method, then: These samples were assayed for the concentration of the drug in those participants randomized to test product.
The conditions of data set [5]: human, in vivo.
For data set [6] the following is noted: Opioid withdrawal Study.
From the text: Additional Assessment Included: • 1. Hematological and blood chemistry, urinalysis • 2. Physical examination • 3. Standard of care detoxification treatment (ancillary medications) to alleviate symptoms of acute withdrawal to ensure safe discharge from study site. • 4. Adverse event reporting
Setting [7] is: Day 2 (printed Day −2), 00:00 Hr.

Values joined by “and” are separate entries in the source; they are usually repeats but may differ in a detail not shown here. Identical values can stand only once. Counter-ions that a name gives are not always drawn. Like-named read-outs stand apart in the source and are kept apart here.

Consider `Cc1cccc([C@H](C)c2cnc[nH]2)c1C` [dexmedetomidine hydrochloride], for which the Plasma concentrations result was “BLQ” in data set [1] (Day 1 (printed Day −1), 00:00 Hr); “BLQ” in data set [1] (setting [7]); 54.81 picograms/ml and 97.92 picograms/ml and 119.71 picograms/ml in data set [1] (Day 2 (printed Day −2), 01:00 Hr); 0 ng/mL in “clinical [4]” (0 h); 0.31805 ng/mL in the data set “clinical [4]” (2 h). Further, in data set [1] (Opioid withdrawal Study), the “Plasma concentration achieved at efficacious doses” value is 0.011 to 0.406 ng/mL. In addition, in data set [2], the “AE Term” value was “Headache”. The “AE Outcome” value in data set [2] (headache) is listed as “Recovered”. Also, the “AE Relationship” value in data set [2] (headache) was “Possibly Related”. In data set [2] (headache), the “AE Severity” value is “Moderate”. Besides, the concentration at […] in the data set “clinical [3]” (Day 1 (printed Day −1), 01:15 Hr) worked out at 0.0753 ng/mL; in the data set “clinical [3]” (Day 1 (printed Day −1), 01:30 Hr), 0.112 ng/mL; in “clinical [3]” (Day 2 (printed Day −2), 01:15 Hr) it was 0.14 ng/mL; in the data set “clinical [3]” (Day 2 (printed Day −2), 01:30 Hr), 0.177 ng/mL; in “clinical [3]” (Day 2 (printed Day −2), 01:45 Hr), 0.288 ng/mL. Also, the concentration at 0 h in “clinical [3]” (setting [7]) was 0.00821 ng/mL; in “clinical [4]” (Plasma concentrations) it was 0 ng/mL. In addition, the concentration at 2 h in the data set “clinical [3]” (Day 2 (printed Day −2), 02:00 Hr) was determined as 0.404 ng/mL; in “clinical [4]” (Plasma concentrations), 0.378 ng/mL. In addition, the results for the “Time to reach Cmax, range” value (in the data set “clinical [4]”; in data set [5]) were 60 to 150 min and 15 to 105 min, respectively. Moreover, the “maximum dexmedetomidine concentrations, range” value in “clinical [4]” was 102 to 380 pg/mL. Also, the adverse events result in data set [6] was “No adverse event was reported”.
